Structures are written as SMILES.

By inhibition is commonly meant the share of the control response that was lost under treatment. Low values mean a weak effect, high ones a strong effect.

This test concerns the target T1, ALK2 (Homo sapiens, UniProt Q04771).
T1 construct: purchased ThermoFisher Scientific (Life Technologies)
T1 sequence (Q04771 21-509): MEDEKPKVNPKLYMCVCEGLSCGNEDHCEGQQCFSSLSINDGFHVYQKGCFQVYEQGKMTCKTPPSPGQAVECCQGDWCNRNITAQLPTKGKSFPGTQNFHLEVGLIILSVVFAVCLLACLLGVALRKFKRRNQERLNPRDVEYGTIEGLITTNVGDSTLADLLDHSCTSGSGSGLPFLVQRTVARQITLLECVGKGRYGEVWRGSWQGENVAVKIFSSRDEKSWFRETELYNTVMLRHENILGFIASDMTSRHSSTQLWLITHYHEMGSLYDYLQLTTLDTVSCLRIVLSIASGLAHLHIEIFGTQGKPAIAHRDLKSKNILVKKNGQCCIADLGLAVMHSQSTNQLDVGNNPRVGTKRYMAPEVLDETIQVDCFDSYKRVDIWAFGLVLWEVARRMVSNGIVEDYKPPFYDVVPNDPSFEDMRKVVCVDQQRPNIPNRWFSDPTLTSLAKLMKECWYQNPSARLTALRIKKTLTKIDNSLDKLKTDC
Nature of the test: LanthaScreen Eu Kinase Binding Assay, ALK2 inhibition. The conditions noted are these: 1 micromolar concentration. As to the method: Biochemical assays to measure the inhibitory effects of the compounds were performed by ThermoFisher Scientific (Life Technologies). ALK2 inhibition was tested using LanthaScreen™ Eu Kinase Binding Assay screening protocol.
In general terms: TR-FRET usually uses a lanthanide donor and a delayed reading to cut background.

Take `C=C(C)c1nc(Nc2cn(-c3cc(OC)c(OC)c(OC)c3)cn2)c2cnn(C(C)C)c2n1` [Compound 3d, 1-isopropyl-6-(prop-1-en-2-yl)-N-(1-(3,4,5-trimethoxyphenyl)-1H-imidazol-4-yl)-1H-pyrazolo[3,4-d]pyrimidin-4-amine]: the inhibition at 1 µM was greater than 50%. For the compound `COc1cc(-n2cnc(Nc3nc(C4CC4)nc4c3cnn4C34CC(C3)C4)c2)cc(OC)c1OC` [Compound 118f, 1-(bicyclo[1.1.1]pentan-1-yl)-6-cyclopropyl-N-(1-(3,4,5-trimethoxyphenyl)-1H-imidazol-4-yl)-1H-pyrazolo[3,4-d]pyrimidin-4-amine], the inhibition at 1 µM is greater than 50%.

For the compound `COc1cc(-n2cnc(Nc3nc(C(C)C)nc4ccc(F)cc34)c2)cc(OC)c1OC` [Compound 99a, 6-fluoro-2-isopropyl-N-(1-(3,4,5-trimethoxyphenyl)-1H-imidazol-4-yl)quinazolin-4-amine], the inhibition at 1 µM is greater than 50%.

Compound `COc1cc(-n2cnc(Nc3nc(C4CCOC4)nc4c3cnn4C(C)C)c2)cc(OC)c1OC` (centres unmarked) [Compound 45e, 1-isopropyl-6-(tetrahydrofuran-3-yl)-N-(1-(3,4,5-trimethoxyphenyl)-1H-imidazol-4-yl)-1H-pyrazolo[3,4-d]pyrimidin-4-amine] returned an inhibition at 1 µM greater than 50%.

For `COc1cc(-n2cnc(Nc3nc(C(C)C)nc4c3cnn4-c3ccccc3)c2)cc(OC)c1OC` [Compound 39d, 6-isopropyl-1-phenyl-N-(1-(3,4,5-trimethoxyphenyl)-1H-imidazol-4-yl)-1H-pyrazolo[3,4-d]pyrimidin-4-amine], the inhibition at 1 µM was greater than 50%. The result for `COc1ccc2c(Nc3cn(-c4cc(OC)c(OC)c(OC)c4)cn3)nc(C(C)C)nc2c1` [Compound 75a, 2-isopropyl-7-methoxy-N-(1-(3,4,5-trimethoxyphenyl)-1H-imidazol-4-yl)quinazolin-4-amine] reads greater than 50%; that for `CCn1ncc2c(Nc3cn(-c4cc(OC)c(OC)c(OC)c4)cn3)nc(C(C)C)nc21` [Compound 23c, 1-ethyl-6-isopropyl-N-(1-(3,4,5-trimethoxyphenyl)-1H-imidazol-4-yl)-1H-pyrazolo[3,4-d]pyrimidin-4-amine], greater than 50%.

The compound `COc1cc(-n2cnc(Nc3nc(C(C)CCO)nc4c3cnn4C(C)C)c2)cc(OC)c1OC` (centres unmarked) [Compound 49b, 3-(1-isopropyl-4-((1-(3,4,5-trimethoxyphenyl)-1H-imidazol-4-yl)amino)-1H-pyrazolo[3,4-d]pyrimidin-6-yl)butan-1-ol] gave an inhibition at 1 µM greater than 50%. The compound `CCn1ncc2c(Nc3cn(-c4cc(OC)c(OC)c(OC)c4)cn3)nc(CC3CC3)nc21` [Compound 124e, 6-(cyclopropylmethyl)-1-ethyl-N-(1-(3,4,5-trimethoxyphenyl)-1H-imidazol-4-yl)-1H-pyrazolo[3,4-d]pyrimidin-4-amine] showed an inhibition at 1 µM greater than 50%.

As for `COCCc1nc(Nc2cn(-c3cc(OC)c(OC)c(OC)c3)cn2)c2cnn(C(C)C)c2n1` [Compound 30e, 1-isopropyl-6-(2-methoxyethyl)-N-(1-(3,4,5-trimethoxyphenyl)-1H-imidazol-4-yl)-1H-pyrazolo[3,4-d]pyrimidin-4-amine], the inhibition at 1 µM is greater than 50%. The result for `COc1cc(-n2cnc(Nc3nc(C(C)C)nc4sccc34)c2)cc(OC)c1OC` [Compound 81a, 2-isopropyl-N-(1-(3,4,5-trimethoxyphenyl)-1H-imidazol-4-yl)thieno[2,3-d]pyrimidin-4-amine] reads greater than 50%; that for `C=C(C)c1nc(Nc2cn(-c3cc(OC)c(OC)c(OC)c3)cn2)nc2ccccc12` [Compound 55c, 4-(prop-1-en-2-yl)-N-(1-(3,4,5-trimethoxyphenyl)-1H-imidazol-4-yl)quinazolin-2-amine], greater than 50%; that for `COc1cc(-n2cnc(Nc3nc(CC4CC4)nc4c3cnn4C34CC(C3)C4)c2)cc(OC)c1OC` [Compound 123e, 1-(bicyclo[1.1.1]pentan-1-yl)-6-(cyclopropylmethyl)-N-(1-(3,4,5-trimethoxyphenyl)-1H-imidazol-4-yl)-1H-pyrazolo[3,4-d]pyrimidin-4-amine], greater than 50%. Next, `COc1cc(-n2cnc(Nc3nc(C(C)C)nc4c3cnn4CC3CCCC3)c2)cc(OC)c1OC` [Compound 24c, 1-(cyclopentylmethyl)-6-isopropyl-N-(1-(3,4,5-trimethoxyphenyl)-1H-imidazol-4-yl)-1H-pyrazolo[3,4-d]pyrimidin-4-amine]: greater than 50%; `COc1cc(-n2cnc(Nc3nc(CC4CC4)nc4c3cnn4C)c2)cc(OC)c1OC` [Compound 125e, 6-(cyclopropylmethyl)-1-methyl-N-(1-(3,4,5-trimethoxyphenyl)-1H-imidazol-4-yl)-1H-pyrazolo[3,4-d]pyrimidin-4-amine]: greater than 50%; `CCCC(C)n1ncc2c(Nc3cn(-c4cc(OC)c(OC)c(OC)c4)cn3)nc(C(C)C)nc21` (centres unmarked) [Compound 15e, 6-isopropyl-1-(pentan-2-yl)-N-(1-(3,4,5-trimethoxyphenyl)-1H-imidazol-4-yl)-1H-pyrazolo[3,4-d]pyrimidin-4-amine]: greater than 50%. `COc1cc(-n2cnc(Nc3nc(C(C)CC(O)CO)nc4c3cnn4C(C)C)c2)cc(OC)c1OC` (centres unmarked) [Compound 47a, 4-(1-isopropyl-4-((1-(3,4,5-trimethoxyphenyl)-1H-imidazol-4-yl)amino)-1H-pyrazolo[3,4-d]pyrimidin-6-yl)pentane-1,2-diol] yielded an inhibition at 1 µM greater than 50%. `COc1cc(-n2cnc(Nc3nc(C(C)C)nc4c3cnn4C(C)(C)C)c2)cc(OC)c1OC` [Compound 2d, 1-(tert-butyl)-6-isopropyl-N-(1-(3,4,5-trimethoxyphenyl)-1H-imidazol-4-yl)-1H-pyrazolo[3,4-d]pyrimidin-4-amine] returned an inhibition at 1 µM greater than 50%. Turning to `CCOC(=O)CC(C)c1nc(Nc2cn(-c3cc(OC)c(OC)c(OC)c3)cn2)c2cnn(C(C)C)c2n1` (centres unmarked) [Compound 103c, ethyl 3-(1-isopropyl-4-((1-(3,4,5-trimethoxyphenyl)-1H-imidazol-4-yl)amino)-1H-pyrazolo[3,4-d]pyrimidin-6-yl)butanoate], the inhibition at 1 µM was greater than 50%. Next, `C=C(C)c1nc(Nc2cn(-c3cc(OC)c(OC)c(OC)c3)cn2)c2cccnc2n1` [Compound 82c, 2-(prop-1-en-2-yl)-N-(1-(3,4,5-trimethoxyphenyl)-1H-imidazol-4-yl)pyrido[2,3-d]pyrimidin-4-amine]: greater than 50%; `CCCC(C)c1nc(Nc2cn(-c3cc(OC)c(OC)c(OC)c3)cn2)c2cnn(C(C)C)c2n1` (centres unmarked) [Compound 29a, 1-isopropyl-6-(pentan-2-yl)-N-(1-(3,4,5-trimethoxyphenyl)-1H-imidazol-4-yl)-1H-pyrazolo[3,4-d]pyrimidin-4-amine]: greater than 50%.

For the compound `C=C(C)c1nc(Nc2cn(-c3cc(OC)c(OC)c(OC)c3)cn2)c2scc(C)c2n1` [Compound 92c, 7-methyl-2-(prop-1-en-2-yl)-N-(1-(3,4,5-trimethoxyphenyl)-1H-imidazol-4-yl)thieno[3,2-d]pyrimidin-4-amine], the inhibition at 1 µM was greater than 50%. Next, `C=C(C)c1nc2c(c(Nc3cn(-c4cc(OC)c(OC)c(OC)c4)cn3)n1)COC2` [Compound 71c, 2-(prop-1-en-2-yl)-N-(1-(3,4,5-trimethoxyphenyl)-1H-imidazol-4-yl)-5,7-dihydrofuro[3,4-d]pyrimidin-4-amine]: greater than 50%.

Source of the values: patent publication US20240270750A1, “IMIDAZOLE-CONTAINING INHIBITORS OF ALK2 KINASE” (BioCryst Pharmaceuticals, Inc., priority 2021, published 2024).
